Experimental data from article PMC3880124 (MedChemComm, 2013).
Read-outs that look alike come from different tables or passages of the source.

Key:
[1] = target: T1, SK1 (Homo sapiens, UniProt Q9NYA1); assay: Inhibition of SK1 activity; settings: compound at 50 μM; Sph 3 μM
[2] = target: T1, SK1; assay: Test of compounds as SK1 substrates; format: biochemical; settings: compound at 50 μM
[3] = test system: PASMC; settings: 24 h
[4] = target: T2, SK2 (Homo sapiens, UniProt Q9NRA0); assay: Inhibition of SK2 activity; format: biochemical; settings: compound at 50 μM; Sph 10 μM
T2 sequence (Q9NRA0 1-654): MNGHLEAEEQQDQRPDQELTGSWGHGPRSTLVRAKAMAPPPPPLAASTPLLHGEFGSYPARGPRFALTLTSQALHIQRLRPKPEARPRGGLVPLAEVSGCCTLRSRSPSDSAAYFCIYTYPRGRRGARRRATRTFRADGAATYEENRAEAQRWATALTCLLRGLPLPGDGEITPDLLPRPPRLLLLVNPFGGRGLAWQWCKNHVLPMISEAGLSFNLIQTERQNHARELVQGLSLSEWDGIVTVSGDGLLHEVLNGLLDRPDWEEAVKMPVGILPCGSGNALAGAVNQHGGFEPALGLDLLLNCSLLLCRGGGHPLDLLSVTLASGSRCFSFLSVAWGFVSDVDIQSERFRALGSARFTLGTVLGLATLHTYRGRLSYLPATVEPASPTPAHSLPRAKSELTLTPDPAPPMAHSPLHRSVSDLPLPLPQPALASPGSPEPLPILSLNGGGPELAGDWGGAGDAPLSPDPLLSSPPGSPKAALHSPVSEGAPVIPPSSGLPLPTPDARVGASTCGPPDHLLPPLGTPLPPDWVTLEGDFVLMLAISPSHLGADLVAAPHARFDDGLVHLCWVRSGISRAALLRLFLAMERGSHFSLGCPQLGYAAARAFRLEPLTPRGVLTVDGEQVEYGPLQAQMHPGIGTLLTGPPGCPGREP

[5] = target: T2, SK2; assay: Test of compounds as SK2 substrates; format: biochemical; settings: compound at 50 μM
[6] = target: T1, SK1; assay: SK1 expression in PASMC; settings: 10 μM, 24 h, western blot

T1 sequence (Q9NYA1 whole entry): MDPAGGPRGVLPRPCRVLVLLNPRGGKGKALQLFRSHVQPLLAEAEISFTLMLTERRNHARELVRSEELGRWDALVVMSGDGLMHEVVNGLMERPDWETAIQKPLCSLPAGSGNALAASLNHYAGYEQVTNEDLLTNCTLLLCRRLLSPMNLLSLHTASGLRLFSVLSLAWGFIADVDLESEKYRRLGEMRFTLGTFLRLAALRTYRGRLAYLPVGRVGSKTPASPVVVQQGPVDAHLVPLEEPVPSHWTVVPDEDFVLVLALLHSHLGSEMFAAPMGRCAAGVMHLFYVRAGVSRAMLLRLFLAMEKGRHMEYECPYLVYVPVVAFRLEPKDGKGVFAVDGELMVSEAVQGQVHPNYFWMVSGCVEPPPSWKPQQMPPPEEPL

| SMILES | SK1 inhibition in words [1] | substrate of SK1 [2] | SK2 inhibition in words [4] | substrate of SK2 [5] | other results |
| --- | --- | --- | --- | --- | --- |
| CCCCCCCCCCCCCCOC[C@@H](O)[C@H](C)N(C)C [77-7] | effective SK1 inhibitor | – | – | – | – |
| CCCCCCCCCCCCCC[C@H]1OC[C@H](NC(=S)Nc2c(F)c(F)c(F)c(F)c2F)[C@@H]1O [67-341] | – | weak substrates of SK1 | – | – | – |
| CCCCCCCCCCCCc1ccc(C(=O)N2CCC[C@H]2C(=N)N)cc1.Cl [VPC96091, reference compound] | – | – | abolished SK1 and SK2 activity | – | effect on DNA synthesis ([3]; 300 nM): ineffective at reducing DNA synthesis |
| CCCCCCCCCCCCCCC[C@@H](O)[C@H](CO)NC(=S)Nc1cccc(F)c1 [F-01] | – | weak substrates of SK1 | less effective | very weak substrates of SK2 | – |
| CCCCCCCCCCCCC/C=C/[C@@H](O)[C@H](CO)NC(=S)Nc1ccc(C(F)(F)F)cc1 [67-330] | weak inhibitor of both SK isoforms | – | weak inhibitor of both SK isoforms | – | – |
| CCCCCCCCCCCCC/C=C\[C@@H](O)[C@@H](N)CO [67-302] | – | weak substrates of SK1 | – | efficiently phosphorylated by SK2 | – |
| CCCCCCCCCCCCCCC[C@@H](O)[C@H](CO)NC(=S)Nc1cccc(C(F)(F)F)c1 [F-02] | – | – | – | very weak substrates of SK2 | effect on SK1 expression [6]: without effect on SK1 expression |
| CCCCCCCCCCCCCCC[C@@H](O)[C@H](C)N [55-21, (2S,3R)-2-amino-3-octadecanol] | more effective SK1 inhibitors | – | – | – | effect on DNA synthesis ([3]; 100 nM and 1 μM): significantly inhibited DNA synthesis; effect on SK1 expression [6]: reduced the expression of SK1 |
| Cc1cc(CS(=O)(=O)c2ccccc2)cc(OCc2ccc(CN3CCC[C@@H]3CO)cc2)c1 [PF-543] | – | – | – | – | effect on DNA synthesis ([3]; 10 nM and 100 nM): ineffective at reducing DNA synthesis |
| CCCCCCCCCCCCCCC[C@@H](O)[C@H](C)[N+](C)(C)C.Cc1ccc(S(=O)(=O)[O-])cc1 [77-13] | nonselective SK inhibitor | weak substrates of SK1 | nonselective SK inhibitor | – | – |
